Measured values as given in ChEMBL document CHEMBL5512655, “Discovery of indolylacryloyl-derived oxacins as novel potential broad-spectrum antibacterial candidates” (Eur J Med Chem, 2024).
≈ marks a conversion by molar mass, not a printed value. Calls of active or inactive are those of the source. No cut-off for these calls is given here.

How the values were obtained:
Escherichia coli [1] = assay: Potency index, ratio of norfloxacin MIC to test compound MIC for antibacterial activity against Escherichia coli assessed as inhibition of bacterial growth measured after 24 hrs incubation; type: functional
Staphylococcus aureus [2] = assay: Induction of lipid peroxidation in methicillin-resistant Staphylococcus aureus N315 assessed as malondialdehyde (MDA) level production at 4 time of MIC; type: functional, organism-based
Cell membrane [3] = assay: Induction of cell membrane damage in Escherichia coli assessed as increase in density of red fluorescence at 4 times of MIC by Calcein-AM/PI dual staining based fluorescence microscopy; type: cell membranes
Staphylococcus aureus [4] = assay: Reduction in metabolic activity in methicillin-resistant Staphylococcus aureus N315 at 6 times of MIC by Alamar Blue assay relative to control; type: functional; set-up: scale not given: the % may be the effect or the level left
Staphylococcus aureus [5] = assay: Antibacterial activity against methicillin-resistant Staphylococcus aureus N315 assessed as inhibition of bacterial growth measured after 24 hrs incubation; type: functional
Escherichia coli [6] = assay: Reduction in metabolic activity in Escherichia coli at 6 times of MIC by Alamar Blue assay relative to control; type: functional; set-up: scale not given: the % may be the effect or the level left
Acinetobacter baumannii [7] = assay: Antibacterial activity against Acinetobacter baumannii assessed as inhibition of bacterial growth measured after 24 hrs incubation; type: functional
[8] = Hemolytic activity in human red blood cells assessed as hemolysis rate at 512 ug/ml relative to control; type: toxicity, cell-based, Erythrocyte; conditions: red blood cells (erythrocytes), at 512 µg/mL, read-out: Activity
Staphylococcus aureus [9] = assay: Potency index, ratio of norfloxacin MIC to test compound MIC for antibacterial activity against Staphylococcus aureus ATCC 25923 assessed as inhibition of bacterial growth measured after 24 hrs incubation; type: functional
[10] = Cytotoxicity against HUVEC cells assessed as cell viability at 64 ug/ml measured after 24 hrs relative to control; type: toxicity, cell-based; conditions: human, at 64 µg/mL, read-out: Activity
Escherichia coli [11] = assay: Reduction in metabolic activity in Escherichia coli by Alamar Blue assay; type: functional, organism-based
Escherichia coli [12] = assay: Induction of lipid peroxidation in Escherichia coli assessed as malondialdehyde (MDA) level production at 4 time of MIC; type: functional, organism-based
Staphylococcus aureus [13] = assay: Induction of ROS production in methicillin-resistant Staphylococcus aureus N315 assessed as fluorescence intensity at 2 times of MIC by DCFH-DA (dichlorofluorescin diacetate) probe based assay
Calf thymus DNA = assay: Binding affinity to calf thymus DNA assessed as hypochromism by spectroscopic analysis; type: nucleic-acid assay; conditions: Bos taurus
Pseudomonas aeruginosa [14] = assay: Potency index, ratio of norfloxacin MIC to test compound MIC for antibacterial activity against Pseudomonas aeruginosa ATCC 27853 assessed as inhibition of bacterial growth measured after 24 hrs incubation; type: functional
Escherichia coli [15] = assay: Antibacterial activity against Escherichia coli assessed as resistance development measured after 11 generations; type: functional, organism-based
Staphylococcus aureus [16] = assay: Antibacterial activity against Staphylococcus aureus ATCC 25923 assessed as inhibition of bacterial growth measured after 24 hrs incubation; type: functional
Staphylococcus aureus [17] = assay: Reduction in metabolic activity in methicillin-resistant Staphylococcus aureus N315 by Alamar Blue assay; type: functional, organism-based
Escherichia coli [18] = assay: Potency index, ratio of norfloxacin MIC to test compound MIC for antibacterial activity against Escherichia coli ATCC 25922 assessed as inhibition of bacterial growth measured after 24 hrs incubation; type: functional
Escherichia coli [19] = assay: Antibacterial activity against Escherichia coli assessed as reduction in bacterial burden at 2 to 4 times of MIC measured upto 7 hrs by time-dependent kinetics assay; type: functional, organism-based
Escherichia coli [20] = assay: Anti-biofilm effect in Escherichia coli assessed as biofilm destruction rate at 6 times of MIC; type: functional
Staphylococcus aureus [21] = assay: Induction of lipid peroxidation in methicillin-resistant Staphylococcus aureus N315 assessed as malondialdehyde (MDA) level production; type: functional, organism-based
Acinetobacter baumannii [22] = assay: Potency index, ratio of norfloxacin MIC to test compound MIC for Antibacterial activity against Acinetobacter baumannii assessed as inhibition of bacterial growth measured after 24 hrs incubation; type: functional
Staphylococcus aureus [23] = assay: Anti-biofilm effect in methicillin-resistant Staphylococcus aureus N315 assessed as biofilm destruction rate at 6 times of MIC; type: functional
Pseudomonas aeruginosa [24] = assay: Potency index, ratio of norfloxacin MIC to test compound MIC for antibacterial activity against Pseudomonas aeruginosa assessed as inhibition of bacterial growth measured after 24 hrs incubation; type: functional
Staphylococcus aureus [25] = assay: Antibacterial activity against methicillin-resistant Staphylococcus aureus N315 assessed as resistance development by measuring compound concentration required to inhibit measured after 18 generations; type: functional
[26] = Cytotoxicity against human L02 cells assessed as cell viability at 16 ug/ml measured after 24 hrs relative to control; type: toxicity, cell-based; conditions: at 16 µg/mL, read-out: Activity
Escherichia coli [27] = assay: Antibacterial activity against Escherichia coli assessed as resistance development measured after 18 generations; type: functional, organism-based
Cell membrane [28] = assay: Induction of cytoplasmic membrane integrity loss in methicillin-resistant Staphylococcus aureus N315 assessed as increase in fluorescence intensity at 0.5 to 6 times of MIC by Propidium iodide method; type: cell membranes
Staphylococcus aureus [29] = assay: Antibacterial activity against methicillin-resistant Staphylococcus aureus N315 assessed as resistance development measured after 10 generations; type: functional, organism-based
Staphylococcus aureus [30] = assay: Antibacterial activity against Staphylococcus aureus assessed as inhibition of bacterial growth measured after 24 hrs incubation; type: functional
Staphylococcus aureus [31] = assay: Anti-biofilm effect in methicillin-resistant Staphylococcus aureus N315 assessed as inhibition of biofilm formation by measuring reduction in exo-polysaccharide content at 6 times of MIC relative to control; type: functional
Klebsiella pneumoniae = assay: Antibacterial activity against Klebsiella pneumonia assessed as inhibition of bacterial growth measured after 24 hrs incubation; type: functional
Pseudomonas aeruginosa [32] = assay: Antibacterial activity against Pseudomonas aeruginosa assessed as inhibition of bacterial growth measured after 24 hrs incubation; type: functional
Staphylococcus aureus [33] = assay: Anti-biofilm effect in methicillin-resistant Staphylococcus aureus N315 assessed as biofilm destruction by measuring reduced biofilm content at MIC; type: functional
Escherichia coli [34] = assay: Induction of ROS production in Escherichia coli assessed as fluorescence intensity at 2 times of MIC by DCFH-DA (dichlorofluorescin diacetate) probe based assay; type: functional
Staphylococcus aureus [35] = assay: Antibacterial activity against methicillin-resistant Staphylococcus aureus N315 assessed as reduction in bacterial burden at 2 to 4 times of MIC measured within 5 hrs by time-dependent kinetics assay; type: functional, organism-based
Escherichia coli [36] = assay: Antibacterial activity against Escherichia coli assessed as reduction in bacterial burden at 2 to 4 times of MIC measured within 5 hrs by time-dependent kinetics assay; type: functional, organism-based
Escherichia coli [37] = assay: Induction of lipid peroxidation in Escherichia coli assessed as malondialdehyde (MDA) level production; type: functional, organism-based
Escherichia coli [38] = assay: Antibacterial activity against Escherichia coli assessed as resistance development by measuring compound concentration required to inhibit measured after 18 generations; type: functional
Escherichia coli [39] = assay: Anti-biofilm effect in Escherichia coli assessed as inhibition of biofilm formation by measuring reduction in exo-polysaccharide content at 6 times of MIC relative to control; type: functional
Pseudomonas aeruginosa [40] = assay: Antibacterial activity against Pseudomonas aeruginosa ATCC 27853 assessed as inhibition of bacterial growth measured after 24 hrs incubation; type: functional
Escherichia coli [41] = assay: Antibacterial activity against Escherichia coli ATCC 25922 assessed as inhibition of bacterial growth measured after 24 hrs incubation; type: functional
Enterococcus faecalis = assay: Potency index, ratio of norfloxacin MIC to test compound MIC for antibacterial activity against Enterococcus faecalis assessed as inhibition of bacterial growth measured after 24 hrs incubation; type: functional

## CCOC(=O)Cn1cc(/C=C(\C#N)C(=O)N2CCN(c3cc4c(cc3F)c(=O)c(C(=O)O)cn4CC)CC2)c2ccccc21
Escherichia coli [1]
  Ratio: 1
Staphylococcus aureus [2]
  Activity: Active
Cell membrane [3]
  Activity: Active
Staphylococcus aureus [4]
  Activity: >50%
Staphylococcus aureus [5]
  MIC: 0.25 µg/mL (≈ 0.417 µM)
Escherichia coli [6]
  Activity: >50%
Acinetobacter baumannii [7]
  MIC: 0.25 µg/mL (≈ 0.417 µM)
[8]
  hemolysis at 512 ug/ml: < 5%
Staphylococcus aureus [9]
  Ratio: 1
[10]
  viability at 24 h, 64 ug/ml: 85%
Escherichia coli [11]
  Activity: Dose-Dependent Effect
Escherichia coli [12]
  Activity: Active
Staphylococcus aureus [13]
  Activity: >50%
Calf thymus DNA
  Activity: Active
Pseudomonas aeruginosa [14]
  Ratio: 1
Escherichia coli [15]
  Activity: inactive
Staphylococcus aureus [16]
  MIC: 0.25 µg/mL (≈ 0.417 µM)
Staphylococcus aureus [17]
  Activity: Dose-Dependent Effect
Escherichia coli [18]
  Ratio: 1
Escherichia coli [19]
  Activity: Active
Escherichia coli [20]
  inhibition (INH): >60%
Staphylococcus aureus [21]
  Activity: Dose-Dependent Effect
Acinetobacter baumannii [22]
  Ratio: 1
Staphylococcus aureus [23]
  inhibition (INH): >60%
Pseudomonas aeruginosa [24]
  Ratio: 1
Staphylococcus aureus [25]
  MIC: 64 µg/mL (≈ 107 µM)
[26]
  viability at 24 h, 16 ug/ml: 80%
Escherichia coli [27]
  Activity: Active
Cell membrane [28]
  Activity: Active
Staphylococcus aureus [29]
  Activity: inactive
Staphylococcus aureus [30]
  MIC: 0.25 µg/mL (≈ 0.417 µM)
Staphylococcus aureus [31]
  inhibition (INH): <50%
Klebsiella pneumoniae
  MIC: 0.5 µg/mL (≈ 0.834 µM)
Pseudomonas aeruginosa [32]
  MIC: 0.5 µg/mL (≈ 0.834 µM)
Staphylococcus aureus [33]
  inhibition (INH): 68.8%
Escherichia coli [34]
  Activity: >50%
Staphylococcus aureus [35]
  Activity: Active
Escherichia coli [36]
  Activity: Active
Escherichia coli [37]
  Activity: Dose-Dependent Effect
Escherichia coli [38]
  MIC: 32 µg/mL (≈ 53.4 µM)
Escherichia coli [39]
  inhibition (INH): <50%
Pseudomonas aeruginosa [40]
  MIC: 0.5 µg/mL (≈ 0.834 µM)
Escherichia coli [41]
  MIC: 0.5 µg/mL (≈ 0.834 µM)
Enterococcus faecalis
  Ratio: 1
